# Data reported in paper PMC2698043 (Journal of medicinal chemistry, 2009).
# Key:
# human PNP [1] = target: T1, human PNP (Homo sapiens, UniProt P00491); assay: biochemical
# human PNP [2] = target: T1, human PNP
# blood PNP = blood PNP (Mus musculus, UniProt P23492); settings: mice
# blood PNP, sequence (P23492 whole entry): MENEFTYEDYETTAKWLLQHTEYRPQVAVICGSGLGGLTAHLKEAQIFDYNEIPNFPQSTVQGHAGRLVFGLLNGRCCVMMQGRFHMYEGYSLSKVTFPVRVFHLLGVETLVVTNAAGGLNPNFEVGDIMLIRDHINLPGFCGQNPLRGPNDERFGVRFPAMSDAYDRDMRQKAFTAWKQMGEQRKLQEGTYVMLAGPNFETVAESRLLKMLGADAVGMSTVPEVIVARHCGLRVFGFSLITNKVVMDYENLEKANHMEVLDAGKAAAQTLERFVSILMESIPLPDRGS
# T1 sequence (P00491 whole entry): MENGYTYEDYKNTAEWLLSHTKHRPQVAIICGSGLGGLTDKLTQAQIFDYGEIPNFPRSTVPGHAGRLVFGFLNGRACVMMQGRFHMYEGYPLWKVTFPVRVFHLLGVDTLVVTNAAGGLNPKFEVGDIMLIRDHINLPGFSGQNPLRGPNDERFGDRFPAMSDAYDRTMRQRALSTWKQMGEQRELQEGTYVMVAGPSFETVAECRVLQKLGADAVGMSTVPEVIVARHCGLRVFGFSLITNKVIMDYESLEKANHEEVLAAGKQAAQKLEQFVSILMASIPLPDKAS
Kd (human PNP [1]) [pM],times more active inhibitor than 9-deazahypoxanthine analogue 11 (human PNP [2]),"time to complete inhibition of PNP catalytic activity (blood PNP; single 50 nmol dose, i.p. injection) [min]","inhibition of blood PNP catalytic activity (blood PNP; single oral dose, for a period of 25 days) [%]",SMILES
2.1,,,,"Nc1nc2c(CNC(CO)CO)c[nH]c2c(=O)[nH]1 [Compound 8, 2-Amino-7-{[(1,3-dihydroxypropan-2-yl)amino]methyl}-3,5-dihydro-4H-pyrrolo[3,2-d]pyrimidin-4-one]"
,2 – 3 times,,,"Nc1nc2c(CN[C@H](CO)[C@H](O)CO)c[nH]c2c(=O)[nH]1 [Compound 9, 2-Amino-7-({[(2R,3S)-1,3,4-trihydroxybutan-2-yl]amino}methyl)-3,5-dihydro-4Hpyrrolo[3,2-d]pyrimidin-4-one]"
5.2,,≤ 20,> 50,O=c1[nH]cnc2c(CNC(CO)CO)c[nH]c12 [Compound 10]
